In brackets after ≈: the same amount, converted by molar mass.
Legend:
in vitro = conditions: human, hek293t cells
S. aureus FabH = molecular target: T1, S. aureus FabH (Staphylococcus aureus, UniProt Q6GAU3); test: in vitro targeting of purified protein (method not given); type: binding
T1 construct: recombinant, N-terminal His-tag, pET28a(+), E. coli BL21(DE3)
T1 sequence (Q6GAU3 1-313): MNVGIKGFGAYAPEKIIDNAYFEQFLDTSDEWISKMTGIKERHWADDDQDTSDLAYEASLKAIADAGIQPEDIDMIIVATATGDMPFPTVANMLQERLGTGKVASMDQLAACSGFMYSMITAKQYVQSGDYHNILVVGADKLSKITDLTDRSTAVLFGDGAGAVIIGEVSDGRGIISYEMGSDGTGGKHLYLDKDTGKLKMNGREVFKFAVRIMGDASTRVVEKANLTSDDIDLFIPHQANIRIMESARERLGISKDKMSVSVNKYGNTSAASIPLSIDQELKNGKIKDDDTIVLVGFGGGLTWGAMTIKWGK
Source text: in vitro targeting of purified protein (method not told in the main text) on S. aureus FabH | The S. aureus FabH […] can also be targeted by 10-F05 in vitro

Sf_PdxY = molecular target: T2, Sf_PdxY (Shigella flexneri, UniProt Q83KY1); test: in-gel fluorescence, competition with 5-TMRIA labelling; type: binding; conditions: covalent; 1.5 uM protein in PBS, 1 h, 22 °C
T2 construct: gene pdxY; recombinant, N-terminal His-tag, pET28a(+), E. coli BL21(DE3), Ni-NTA and Superdex 75
T2 sequence (Q83KY1 1-287): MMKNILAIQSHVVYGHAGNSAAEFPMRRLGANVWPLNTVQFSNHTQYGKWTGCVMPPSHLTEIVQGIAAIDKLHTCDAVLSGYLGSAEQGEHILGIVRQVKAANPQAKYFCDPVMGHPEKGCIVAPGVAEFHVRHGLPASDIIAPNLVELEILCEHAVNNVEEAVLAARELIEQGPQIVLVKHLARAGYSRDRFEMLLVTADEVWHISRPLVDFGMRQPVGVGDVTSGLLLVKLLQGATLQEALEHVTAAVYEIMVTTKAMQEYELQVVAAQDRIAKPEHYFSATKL

Sf_FabH = molecular target: T3, Sf_FabH (Shigella flexneri, UniProt Q83RS8); test: as above; type: binding; conditions: covalent; 1.5 uM protein in PBS, 1 h, 22 °C
T3 construct: gene fabH; recombinant, N-terminal His-tag, pET28a(+), E. coli BL21(DE3), Ni-NTA and Superdex 75
T3 sequence (Q83RS8 1-317): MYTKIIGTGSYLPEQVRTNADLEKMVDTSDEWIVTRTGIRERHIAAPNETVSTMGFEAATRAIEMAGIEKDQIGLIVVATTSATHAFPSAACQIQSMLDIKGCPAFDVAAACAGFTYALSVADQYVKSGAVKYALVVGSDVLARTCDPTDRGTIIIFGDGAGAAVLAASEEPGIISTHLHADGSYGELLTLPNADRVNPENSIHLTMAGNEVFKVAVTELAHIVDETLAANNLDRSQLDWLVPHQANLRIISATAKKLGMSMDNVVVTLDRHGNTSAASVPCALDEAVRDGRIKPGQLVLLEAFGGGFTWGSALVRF

[1] = tested on: T4, Staphylococcus aureus SAD30; test: microbe, parasite or virus in culture; set-up: species or system bacteria in LB, TSB or NB; broth microdilution MIC, OD600, lowest concentration with no growth
T4 construct: SAD30
Description: The minimum inhibitory concentrations (MICs) of compounds were measured using the broth microdilution method.[10] One stab using 10 µL tip from bacteria glycerol stock was inoculated into 5 mL of LB supplemented with selection antibiotics (Kanamycin for Keio collections and chloramphenicol for ASKA collections), and the culture was incubated at 37°C with shaking overnight. The overnight culture was diluted 1:10000 (~5 × 10^5 CFU/mL) and then dispensed in to a 96-well plate containing serial dilutions of indicated compounds in DMSO. The plate was incubated at 37°C for 16–20 h with shaking at 80 rpm and the OD600 was measured using Cytation 5 plate reader (BioTek). MIC was determined as the lowest concentration for which no bacterial growth was observed. LB was used as the growth media for all the bacteria strains unless otherwise mentioned. For S. aureus and A. baumannii strains, tryptic soy broth (TSB, BD, DF0370-17-3) was used as the growth media instead of LB. For P. aeruginosa and K. pneumoniae strains, nutrient broth (NB, RPI, N15100) was used as growth media. All MIC measurements were performed in at least biological duplicates.

| Compound | viability at 48 h, 25 µM (in vitro) | further results |
| --- | --- | --- |
| O=C(CCl)c1cn(-c2ccc(F)cc2)nn1 [10-F05] | 89.9% | in vitro targeting of purified protein (method not given) (S. aureus FabH): The S. aureus FabH [...] can also be targeted by 10-F05 in vitro; in-gel fluorescence, competition with 5-TMRIA labelling (Sf_PdxY): preincubation with 10-F05 resulted in a dose-dependent decrease in 5-TMRIA labeling of these proteins; in-gel fluorescence, competition with 5-TMRIA labelling (Sf_FabH): preincubation with 10-F05 resulted in a dose-dependent decrease in 5-TMRIA labeling of these proteins; MIC [1]: 10 µM (≈ 2.4 µg/mL) |
| Cc1cc(C(=O)CCl)c(C)n1C(C)c1ccccc1 (centres unmarked) [10-P17, 2-chloro-1-[2,5-dimethyl-1-(1-phenylethyl)-1H-pyrrol-3-yl]ethan-1-one] | 113% |  |
| CN1C(=C(C#N)C(=O)CCl)N(C)c2ccccc21 [10-P18, 4-chloro-2-(1,3-dimethyl-2,3-dihydro-1H-1,3-benzodiazol-2-ylidene)-3-oxobutanenitrile] | 89.4% |  |
| O=S(=O)(CC=C(Cl)Cl)N1CCSSCC1 [10-P19, 5-(3,3-dichloroprop-2-ene-1-sulfonyl)-1,2,5-dithiazepane] | 127% |  |
| CN(C)C1=NC(N)=NC(=C(C#N)C(=O)CCl)N1 [10-P20, 2-[4-amino-6-(dimethylamino)-1,2-dihydro-1,3,5-triazin-2-ylidene]-4-chloro-3-oxobutanenitrile] | 104% |  |
| COc1ccccc1CN1C(=O)C=CC1=O [10-P21, 1-[(2-methoxyphenyl)methyl]-2,5-dihydro-1H-pyrrole-2,5-dione] | 105% |  |
| CC(=O)c1c(C)[nH]c(C(=O)C(C)Cl)c1C (centres unmarked) [10-P22, 1-(4-acetyl-3,5-dimethyl-1H-pyrrol-2-yl)-2-chloropropan-1-one] | 103% |  |
